# Results published in paper PMC5345022 (Scientific Reports, 2017).
# pEC50, pKi: −log10 of the molar value. Entries after “also recorded” stand apart in the source; their conditions may differ.
# Key:
# [1] = target: T1, human dopamine D2L receptor (Homo sapiens, UniProt P14416); assay: biochemical
# Description: (§2) Receptor binding studies were carried out as described previously[43][44].
# (§3) The resulting competition curves of the receptor binding experiments were analysed by nonlinear regression using the algorithms in PRISM 6.0 (GraphPad Software, San Diego, CA). […] IC50 values were transformed to Ki values according to the equation of Cheng and Prusoff[48].
# [2] = target: T1, human dopamine D2L receptor; assay: Radioligand binding assay with [3H]spiperone, membranes of CHO cells stably expressing the receptor; conditions: for binding affinity (in words): D2R radioligand binding
# Description: as §2, §3
# [3] = target: T2, dopamine receptor subtype D2S (Homo sapiens, UniProt P14416); assay: β-Arrestin-2 recruitment assay (PathHunter), agonist and antagonist mode; assay type: cell-based; design: expressed in transfected cells; conditions: for Emax: D2S-mediated recruitment of β-arrestin-2, PathHunter assay, relative to the maximum effect of quinpirole; for β-arrestin recruitment (in words): agonist mode
# T2 sequence (P14416 1-414 isoform P14416-2): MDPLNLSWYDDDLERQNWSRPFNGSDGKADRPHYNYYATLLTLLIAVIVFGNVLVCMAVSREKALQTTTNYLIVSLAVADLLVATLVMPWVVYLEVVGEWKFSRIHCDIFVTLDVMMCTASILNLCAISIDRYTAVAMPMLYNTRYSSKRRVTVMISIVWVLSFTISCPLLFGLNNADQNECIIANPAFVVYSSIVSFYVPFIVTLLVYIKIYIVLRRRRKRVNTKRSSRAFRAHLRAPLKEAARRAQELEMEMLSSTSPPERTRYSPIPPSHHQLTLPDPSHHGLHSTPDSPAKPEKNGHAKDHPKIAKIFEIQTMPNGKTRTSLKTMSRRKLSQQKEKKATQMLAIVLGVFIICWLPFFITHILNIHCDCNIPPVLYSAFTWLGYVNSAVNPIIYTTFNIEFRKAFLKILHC
# Description: The measurement of β-arrestin-2 recruitment stimulated by D2R activation was performed using the PathHunter® assay purchased from DiscoveRx (Birmingham, U.K.) according to the manufacturer’s protocol as described previously.
# The amount of recruitment of β-arrestin was derived from the agonist-induced increase of chemiluminescence, which was expressed in counts per second (cps). Dose-response curves were normalised to basal cps stimulated by buffer (=0%) and the effect of the maximum effect of the reference compound quinpirole (=100%).
# (§1) From each curve, a set of mean values was derived and pooled to result in an average curve showing the EC50 and Emax value, respectively.
# [4] = target: T2, dopamine receptor subtype D2S; assay: cAMP inhibition assay: inhibition of forskolin-stimulated cAMP accumulation (CAMYEL BRET sensor); assay type: cell-based; design: expressed in transfected cells; host or cells: HEK293T cells, transient co-transfection with the CAMYEL sensor; conditions: for Emax / Inhibition of forskolin-stimulated cAMP accumulation Emax (%): maximum effect relative to the effect of quinpirole
# Description: HEK293T cells were transiently co-transfected with pcDNA3L-His-CAMYEL[45] (purchased from ATCC, Manassas, VA via LGC Standards, Wesel, Germany) and D2s receptor, respectively, and the assay was performed according to literature. Twenty-four hours after transfection cells were split into white half-area 96-well plates at 2 × 10^5 cells/well and grown overnight in a phenol-red free medium supplemented with serum (Invitrogen, Darmstadt, Germany). On the day of measurement, the medium was removed and replaced by phosphate buffered saline (PBS). The cells were serum-starved for 1 h before treatment. The assay was started by adding 10 μL of coelenterazine-h (Promega, Mannheim, Germany) to each well to yield a final concentration of 5 μM. After 5 min of incubation, test compounds were added in PBS containing forskolin at a final concentration of 10 μM. After an incubation time of 15 min, BRET measurement was performed with a CLARIOstar plate reader (BMG LabTech, Ortenberg, Germany). […] Curves were normalised to basal BRET ratio obtained from dPBS (0%) and the maximum effect of the reference ligand quinpirole (100%).
# Data from cAMP measurements were analysed by normalising the BRET ratios with 0% for the unstimulated receptor and 100% for the full effect of the reference ligand quinpirole. Dose-response curves were calculated by nonlinear regression using the algorithms of PRISM 6.0.
# as §1
# T1 sequence (P14416 whole entry): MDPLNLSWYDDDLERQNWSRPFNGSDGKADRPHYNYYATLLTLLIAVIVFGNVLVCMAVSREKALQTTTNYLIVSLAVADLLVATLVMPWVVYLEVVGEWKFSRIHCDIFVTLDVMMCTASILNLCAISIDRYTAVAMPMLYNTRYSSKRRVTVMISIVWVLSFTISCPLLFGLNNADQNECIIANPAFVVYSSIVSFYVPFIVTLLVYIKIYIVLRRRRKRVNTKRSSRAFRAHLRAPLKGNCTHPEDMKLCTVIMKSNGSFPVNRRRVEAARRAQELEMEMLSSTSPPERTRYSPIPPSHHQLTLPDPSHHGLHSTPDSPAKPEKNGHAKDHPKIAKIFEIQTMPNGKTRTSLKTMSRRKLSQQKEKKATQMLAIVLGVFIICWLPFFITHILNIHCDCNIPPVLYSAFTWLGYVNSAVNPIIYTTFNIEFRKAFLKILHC
structure (smiles),measurement,setting,value
COC(=O)C1=CO[C@@H](C)[C@H]2CN3CCc4c([nH]c5ccccc45)[C@@H]3C[C@H]12 [Ajmalicine],pKi,[1],< 4.00
"CC(C)(C)NCC(O)c1cc(Cl)c(N)c(Cl)c1 (stereo not shown) [Clenbuterol, reference compound]",pKi,[2],4.30
Oc1cc(O)c2cc(O)c(-c3cc(O)c(O)c(O)c3)[o+]c2c1 [Delphinidin],pKi,[1],4.59
same,Emax,[3],< 7%
COc1ccc2c(c1OC)CN1CCc3cc4c(cc3C1=C2)OCO4 [Dihydroberberine],pKi,[1],4.12
"CC[C@H]1CN2CCc3cc(OC)c(OC)cc3[C@@H]2C[C@@H]1C[C@H]1NCCc2cc(OC)c(OC)cc21 [Emetine, reference compound]",pKi,[2],4.43
CC(Cc1ccc(C(C)(C)C)cc1)CN1C[C@@H](C)O[C@@H](C)C1 (stereo partly shown) [Fenpropimorph],pKi,[2],< 4.00
CC(=O)OC1C(C)CN(C)C2Cc3c[nH]c4cccc(c34)C12 (stereo not shown) [Fumigaclavine A],Emax,[3],< 7%
same,β-arrestin recruitment (in words),[3],did not show β-arrestin recruitment
same,pKi,[2],5.96
same,Ki value relative to the endogenous ligand dopamine,[2]; D2L radioligand binding,seven times higher
same,pEC50,[4],6.60
same,agonist activity in the cAMP accumulation assay / Gi/o activation (in words),[4]; D2S expressed in HEK cells,weak partial agonists
same,agonist activity in the cAMP accumulation assay / Gi/o activation (in words),"[4]; D2S expressed in HEK cells, listed as fumigaclavine A",partial agonism in Gi/o activation
"O=C(CC1NCCCC1O)Cn1cnc2cc(Br)c(Cl)cc2c1=O (stereo not shown) [Halofuginone, reference compound]",pKi,[2],< 4.30
CN(C)CCc1ccc(O)cc1 [Hordenine],Emax,[3],< 7%
same,β-arrestin recruitment (in words),[3],did not show significant β-arrestin recruitment; also recorded: no β-arrestin-2 recruitment was determined
same,antagonism of quinpirole-stimulated β-arrestin-2 recruitment (in words),"[3]; antagonist mode: 30 min pre-incubation, then 300 nM quinpirole",antagonised D2-mediated β-arrestin recruitment; also recorded: antagonistic activity; also recorded: completely antagonised quinpirole-stimulated recruitment; also recorded: antagonism in β-arrestin recruitment
same,pKi,[2],4.89
same,binding affinity (in words),[2],low micromolar range
same,pEC50,[4],5.43
same,agonist activity in the cAMP accumulation assay / Gi/o activation (in words),[4]; D2S expressed in HEK cells,shows agonist properties; also recorded: almost full D2R-agonist in Gi/o activation
same,Emax,"[4]; HEK293, read-out: Inhibition of forskolin-stimulated cAMP accumulation Emax (%), D2S expressed in HEK cells",76%
O=C(CCc1ccc(O)c(O)c1)NCCCNCCCCNCCCNC(=O)CCc1ccc(O)c(O)c1 [Kukoamine A],pKi,[1],< 4.00
COc1cc(C(=O)OCCCCNC(=N)N)cc(OC)c1O [Leonurine],pKi,[1],< 4.00
NCc1cc(=O)[nH]o1 [Muscimol],pKi,[2],< 4.00
N[C@@H](CCCCn1c(C=O)ccc1CO)C(=O)O [Pyrraline],pKi,[1],< 4.00
"N=C(N/N=C/c1ccc(Cl)cc1)N/N=C/c1ccc(Cl)cc1 [Robenidine, reference compound]",pKi,[1],5.27
same,Emax,[3],< 7%
same,β-arrestin recruitment (in words),[3],could not observe any activation; also recorded: did not show any activation
same,binding affinity (in words),[2],low micromolar range
same,agonist activity in the cAMP accumulation assay / Gi/o activation (in words),[4]; D2S expressed in HEK cells,could not observe any activation; also recorded: did not show any activation
same,Emax,"[4]; HEK293, D2S expressed in HEK cells, read-out: Inhibition of forskolin-stimulated cAMP accumulation Emax (%)",< 5%
C=CC(C)(C)[C@@]12C[C@H]3C(=O)N/C(=C/c4c[nH]cn4)C(=O)N3[C@@H]1Nc1ccccc12 [Roquefortine C],pKi,[1],< 4.00
CC1NCCc2cc(O)c(O)cc21 (stereo not shown) [Salsolinol],Emax,[3],< 7%
same,β-arrestin recruitment (in words),[3],did not show β-arrestin recruitment
same,agonist activity in the cAMP accumulation assay / Gi/o activation (in words),[4]; D2S expressed in HEK cells,weak partial agonists; also recorded: partial agonism in Gi/o activation
same,Inhibition of forskolin-stimulated cAMP accumulation Emax (%),[4]; D2S expressed in HEK cells,21%
same,Inhibition of forskolin-stimulated cAMP accumulation Emax (%),"[4]; D2S expressed in HEK cells, listed as salsolinol",below 50%
"O=C(O)c1cn(-c2ccc(F)cc2)c2cc(N3CCNCC3)c(F)cc2c1=O [Sarafloxacin, reference compound]",pKi,[1],< 4.00
